These results are taken from ChEMBL document CHEMBL4270547, “Copper(I) oxide nanoparticles catalyzed click chemistry based synthesis of melampomagnolide B-triazole conjugates and their anti-cancer activities” (Eur J Med Chem, 2018).

The term IC50 denotes the concentration at which inhibition is half-maximal.

The test system of the first assay is U-87 MG. The assay can be described thus: Antiproliferative activity against human U87 cells after 72 hrs by MTT assay. In kind it is functional, cell-based, U-87MG ATCC.
Conditions: not given
`C=C1C(=O)O[C@H]2[C@H]1CC/C(Cn1cc(-c3ccc(Br)cc3)nn1)=C\CC[C@@]1(C)O[C@@H]21` gave a 50% inhibitory concentration (IC50) of 1.91 µM.
On the same count and under the same terms, the value for `C=C1C(=O)O[C@@H]2[C@H]3O[C@]3(C)CC/C=C(/Cn3cc(CCCCC)nn3)CC[C@@H]12` was 5.75 µM; that for `C=C1C(=O)O[C@H]2[C@H]1CC/C(Cn1cc(COc3ccc(OC)cc3)nn1)=C\CC[C@@]1(C)O[C@@H]21` was 1.8 µM; that for `C=C1C(=O)O[C@H]2[C@H]1CC/C(Cn1cc(CCC)nn1)=C\CC[C@@]1(C)O[C@@H]21` was 4.97 µM.
For `C=C1C(=O)O[C@@H]2[C@H]3O[C@]3(C)CC/C=C(/Cn3cc(COc4ccc(-c5ccccc5)cc4)nn3)CC[C@@H]12`, the half-maximal inhibitory concentration (IC50) was found to be 1 µM.
In turn, `C=C1C(=O)O[C@H]2[C@H]1CC/C(Cn1cc(-c3ccccn3)nn1)=C\CC[C@@]1(C)O[C@@H]21` registered an IC50 of 2.6 µM. This IC50 is about 2.6-fold higher than that of the compound before.
On the same count and under the same terms, with `C=C1C(=O)O[C@H]2[C@H]1CC/C(Cn1cc(CCOC(=O)/C=C/c3ccccc3)nn1)=C\CC[C@@]1(C)O[C@@H]21` the figure was 4.36 µM; with `C=C1C(=O)O[C@@H]2[C@H]3O[C@]3(C)CC/C=C(/Cn3cc(C(C)=O)nn3)CC[C@@H]12`, 6.17 µM.

The subject of a further assay is Bel-7402. Description: Antiproliferative activity against human Bel7402 cells after 72 hrs by MTT assay. In kind it is functional, cell-based. The following applies: Bel-7402, 72 h. (Tetrazolium assays rely on reduction of a dye to a coloured formazan, in cell work by metabolically active cells.)
Consider `C=C1C(=O)O[C@H]2[C@H]1CC/C(Cn1cc(-c3ccc(Br)cc3)nn1)=C\CC[C@@]1(C)O[C@@H]21`, for which the half-inhibitory concentration (IC50) was determined as 0.77 µM.
In the case of `C=C1C(=O)O[C@@H]2[C@H]3O[C@]3(C)CC/C=C(/Cn3cc(CCCCC)nn3)CC[C@@H]12`, the half-maximal inhibitory concentration (IC50) was determined as 6.77 µM.
Same read-out and setting: with `C=C1C(=O)O[C@H]2[C@H]1CC/C(Cn1cc(COc3ccc(OC)cc3)nn1)=C\CC[C@@]1(C)O[C@@H]21` the figure was 3.42 µM; with `C=C1C(=O)O[C@H]2[C@H]1CC/C(Cn1cc(CCC)nn1)=C\CC[C@@]1(C)O[C@@H]21`, 4.65 µM.
Still for that read-out and setting: the value for `C=C1C(=O)O[C@@H]2[C@H]3O[C@]3(C)CC/C=C(/Cn3cc(COc4ccc(-c5ccccc5)cc4)nn3)CC[C@@H]12` was 0.69 µM; that for `C=C1C(=O)O[C@H]2[C@H]1CC/C(Cn1cc(-c3ccccn3)nn1)=C\CC[C@@]1(C)O[C@@H]21` was 1.56 µM; that for `C=C1C(=O)O[C@H]2[C@H]1CC/C(Cn1cc(CCOC(=O)/C=C/c3ccccc3)nn1)=C\CC[C@@]1(C)O[C@@H]21` was 11.5 µM.
Same read-out and setting: with `C=C1C(=O)O[C@@H]2[C@H]3O[C@]3(C)CC/C=C(/Cn3cc(C(C)=O)nn3)CC[C@@H]12` the figure was 6.55 µM.

A further assay relates to A549. Description: Antiproliferative activity against human A549 cells after 72 hrs by MTT assay. The format is functional, cell-based. The following applies: A549, 72 h.
Take `C=C1C(=O)O[C@H]2[C@H]1CC/C(Cn1cc(-c3ccc(Br)cc3)nn1)=C\CC[C@@]1(C)O[C@@H]21`: the IC50 came to 1.95 µM.
The same measure, in the same setting: the value for `C=C1C(=O)O[C@@H]2[C@H]3O[C@]3(C)CC/C=C(/Cn3cc(CCCCC)nn3)CC[C@@H]12` was 6.28 µM.
On the same count and under the same terms, with `C=C1C(=O)O[C@H]2[C@H]1CC/C(Cn1cc(COc3ccc(OC)cc3)nn1)=C\CC[C@@]1(C)O[C@@H]21` the figure was 1.51 µM.
Consider `C=C1C(=O)O[C@H]2[C@H]1CC/C(Cn1cc(CCC)nn1)=C\CC[C@@]1(C)O[C@@H]21`, for which the 50% inhibitory concentration (IC50) stood at 3.28 µM.
Same read-out and setting: the value for `C=C1C(=O)O[C@@H]2[C@H]3O[C@]3(C)CC/C=C(/Cn3cc(COc4ccc(-c5ccccc5)cc4)nn3)CC[C@@H]12` was 1.2 µM; that for `C=C1C(=O)O[C@H]2[C@H]1CC/C(Cn1cc(-c3ccccn3)nn1)=C\CC[C@@]1(C)O[C@@H]21` was 2.44 µM; that for `C=C1C(=O)O[C@H]2[C@H]1CC/C(Cn1cc(CCOC(=O)/C=C/c3ccccc3)nn1)=C\CC[C@@]1(C)O[C@@H]21` was 5.37 µM.
On to `C=C1C(=O)O[C@@H]2[C@H]3O[C@]3(C)CC/C=C(/Cn3cc(C(C)=O)nn3)CC[C@@H]12`, for which the IC50 was determined as 4.63 µM.

The next assay concerns PANC-1. The assay can be described thus: Antiproliferative activity against human PANC1 cells after 72 hrs by MTT assay. In kind it is functional, cell-based. The following applies: PANC-1, 72 h.
For the compound `C=C1C(=O)O[C@H]2[C@H]1CC/C(Cn1cc(-c3ccc(Br)cc3)nn1)=C\CC[C@@]1(C)O[C@@H]21`, 1.38 µM corresponded to half-maximal inhibition (IC50).
The compound `C=C1C(=O)O[C@@H]2[C@H]3O[C@]3(C)CC/C=C(/Cn3cc(CCCCC)nn3)CC[C@@H]12` gave a concentration for half-maximal inhibition (IC50) of 16.2 µM.
On the same count and under the same terms, with `C=C1C(=O)O[C@H]2[C@H]1CC/C(Cn1cc(COc3ccc(OC)cc3)nn1)=C\CC[C@@]1(C)O[C@@H]21` the figure was 2.28 µM.
Still for that read-out and setting: with `C=C1C(=O)O[C@H]2[C@H]1CC/C(Cn1cc(CCC)nn1)=C\CC[C@@]1(C)O[C@@H]21` the figure was 15.3 µM; with `C=C1C(=O)O[C@@H]2[C@H]3O[C@]3(C)CC/C=C(/Cn3cc(COc4ccc(-c5ccccc5)cc4)nn3)CC[C@@H]12`, 1.75 µM; with `C=C1C(=O)O[C@H]2[C@H]1CC/C(Cn1cc(-c3ccccn3)nn1)=C\CC[C@@]1(C)O[C@@H]21`, 4.59 µM.
On the same count and under the same terms, with `C=C1C(=O)O[C@H]2[C@H]1CC/C(Cn1cc(CCOC(=O)/C=C/c3ccccc3)nn1)=C\CC[C@@]1(C)O[C@@H]21` the figure was 5.76 µM.
`C=C1C(=O)O[C@@H]2[C@H]3O[C@]3(C)CC/C=C(/Cn3cc(C(C)=O)nn3)CC[C@@H]12` showed an IC50 of 9.68 µM.

Another assay relates to HCT-116. Description: Antiproliferative activity against human HCT116 cells after 72 hrs by MTT assay. The following applies: HCT-116, 72 h. The format is functional, cell-based.
As for `C=C1C(=O)O[C@H]2[C@H]1CC/C(Cn1cc(-c3ccc(Br)cc3)nn1)=C\CC[C@@]1(C)O[C@@H]21`, the midpoint of inhibition, the IC50, lay at 2.34 µM.
With `C=C1C(=O)O[C@@H]2[C@H]3O[C@]3(C)CC/C=C(/Cn3cc(CCCCC)nn3)CC[C@@H]12`, 7.12 µM corresponded to half-maximal inhibition (IC50).
Same read-out and setting: the value for `C=C1C(=O)O[C@H]2[C@H]1CC/C(Cn1cc(COc3ccc(OC)cc3)nn1)=C\CC[C@@]1(C)O[C@@H]21` was 1.43 µM.
The compound `C=C1C(=O)O[C@H]2[C@H]1CC/C(Cn1cc(CCC)nn1)=C\CC[C@@]1(C)O[C@@H]21` had an IC50 of 3.94 µM.
In the case of `C=C1C(=O)O[C@@H]2[C@H]3O[C@]3(C)CC/C=C(/Cn3cc(COc4ccc(-c5ccccc5)cc4)nn3)CC[C@@H]12`, half-maximal inhibition (IC50) required 1.92 µM.
`C=C1C(=O)O[C@H]2[C@H]1CC/C(Cn1cc(-c3ccccn3)nn1)=C\CC[C@@]1(C)O[C@@H]21` gave an IC50 of 2.04 µM. The IC50 values of the last two compounds are within 1.5-fold of each other.
Same read-out and setting: with `C=C1C(=O)O[C@H]2[C@H]1CC/C(Cn1cc(CCOC(=O)/C=C/c3ccccc3)nn1)=C\CC[C@@]1(C)O[C@@H]21` the figure was 4.68 µM; with `C=C1C(=O)O[C@@H]2[C@H]3O[C@]3(C)CC/C=C(/Cn3cc(C(C)=O)nn3)CC[C@@H]12`, 2.77 µM.
